From patent US20220105170A1 (priority 2019, published 2022)
Several values for one entry are separate records, joined by “and”; a condition that tells them apart may be missing. Identical values can stand only once.

tested on: peripheral blood lymphocytes collected from swine exposed to ASFV; format: cell-based

Going from 954 (NNFTATCII) [compound 954] to 84 (KVLGLLLGY) [compound 84], the “Number of Spots” value rises from 15 to 16.

First: 1852 (HTLIISPEF) [compound 1852]
Second: 2222 (ISFSEMLTRYW) [compound 2222]
The “Number of Spots” value of the first is higher: 15 for the first, 12 for the second.

First: 1129 (IMDDLVEEY) [compound 1129]
Second: 1141 (ILAEYVYSY) [compound 1141]
The “Number of Spots” value of the first is lower: 14 for the first, 18 for the second.

1264 (RINRNYYPYYI) [compound 1264] and 1372 (NVSRAREFY) [compound 1372] are the same in “Number of Spots” value: 12 for the first, 12 for the second.

1503 (KTDPNFKNL) [compound 1503] and 849 (FLKKNIYLY) [compound 849] are the same in “Number of Spots” value: 13 for the first, 13 for the second.

1631 (FTQITRQTF) [compound 1631] and 1830 (SVMALAKMY) [compound 1830] are the same in “Number of Spots” value: 12 for the first, 12 for the second.

Compared with 2193 (ALNRHITTY) [compound 2193], 1080 (FRDHFIAL) [compound 1080] is higher in “Number of Spots” value: 12 for the first, 16 for the second.

First: 726 (DMYSVIFNIKY) [compound 726]
Second: 2140 (YFRFFKKLL) [compound 2140]
The “Number of Spots” value of the first is lower: 14 for the first, 16 for the second.

1880 (FLNAYAHKL) [compound 1880] and 309 (FTKAIHYFYKR) [compound 309] are the same in “Number of Spots” value: 12 for the first, 12 for the second.

Compared with 69 (KVNKSMPLI) [compound 69], 1205 (QDYSLTFLLK) [compound 1205] is lower in “Number of Spots” value: 255 for the first, 17 for the second.

Going from 1107 (RTIPVAWDRF) [compound 1107] to 1514 (EAAELYFRL) [compound 1514], the “Number of Spots” value falls from 18 to 15.

Compared with 827 (NNVSYYWGL) [compound 827], 1566 (ARIYAGQGY) [compound 1566] is higher in “Number of Spots” value: 13 for the first, 14 for the second.

Compared with 1836 (GKTMPVEFYY) [compound 1836], 2075 (KSCYPLVFI) [compound 2075] is lower in “Number of Spots” value: 17 for the first, 12 for the second.

First: 1278 (NYYPYYIY) [compound 1278]
Second: 1001 (FKLYYIPLSI) [compound 1001]
The “Number of Spots” value of the first is lower: 16 for the first, 21 for the second.

Compared with 56 (MRYTQIYKYPL) [compound 56], 523 (MGFSKPFMR) [compound 523] is lower in “Number of Spots” value: 23 for the first, 12 for the second.

Going from 1912 (KQFEMFNMVY) [compound 1912] to 869 (GLAALVSPY) [compound 869], the “Number of Spots” value rises from 12 to 13.

Compared with 2137 (KNYFRFFKKL) [compound 2137], 2127 (AIQKNYFRF) [compound 2127] is higher in “Number of Spots” value: 12 for the first, 15 for the second.

First: 880 (SSIVFQHEM) [compound 880]
Second: 2139 (NYFRFFKKLL) [compound 2139]
The “Number of Spots” value of the first is higher: 66 for the first, 19 for the second.

Going from 769 (RLNAPNLKY) [compound 769] to 1619 (IDFDPLVTFY) [compound 1619], the “Number of Spots” value rises from 13 to 16.

Compared with 1718 (SSELHFYVF) [compound 1718], 1394 (SSFKCWTCHLY) [compound 1394] is lower in “Number of Spots” value: 15 for the first, 14 for the second.

First: 1567 (QAQEEWNMIL) [compound 1567]
Second: 757 (CFMMQCKSIY) [compound 757]
The “Number of Spots” value of the first is lower: 13 for the first, 16 for the second.

Compared with 2181 (YPHIFYRPLY) [compound 2181], 1472 (KVDLPYHLM) [compound 1472] is higher in “Number of Spots” value: 12 for the first, 16 for the second.

Going from 1207 (DYSLTFLLKK) [compound 1207] to 2225 (SFSEMLTRYW) [compound 2225], the “Number of Spots” value falls from 17 to 12.

Going from 279 (KTDLLNNEF) [compound 279] to 1184 (LSDLRNFSF) [compound 1184], the “Number of Spots” value falls from 17 to 16.

Compared with 1172 (RCQHHAFSY) [compound 1172], 357 (YSYCFIKHF) [compound 357] is higher in “Number of Spots” value: 12 for the first, 13 for the second.

Compared with 275 (ATYNHRKILIY) [compound 275], 1982 (NAFEWIHFV) [compound 1982] is lower in “Number of Spots” value: 21 for the first, 14 for the second.

Going from 1139 (ALANTSANY) [compound 1139] to 1509 (TLAQVFESF) [compound 1509], the “Number of Spots” value rises from 12 to 17.

Going from 1950 (ELVDHIFNY) [compound 1950] to 1571 (KTVQHIEQY) [compound 1571], the “Number of Spots” value falls from 16 to 14.

Going from 2205 (SVEELLSAV) [compound 2205] to 386 (RTENYNLVCEY) [compound 386], the “Number of Spots” value rises from 13 to 110.

First: 653 (WAVFTGNMEL) [compound 653]
Second: 2166 (KIDDFIRLY) [compound 2166]
The “Number of Spots” value of the first is higher: 16 for the first, 13 for the second.

First: 1375 (RAREFYISW) [compound 1375]
Second: 1512 (QIYKTLLEY) [compound 1512]
The “Number of Spots” value of the first is lower: 15 for the first, 21 for the second.

Compared with 906 (WVGYNNVCYY) [compound 906], 857 (AVNSTGLIGY) [compound 857] is higher in “Number of Spots” value: 12 for the first, 17 for the second.

Compared with 70 (KSMPLIVENSY) [compound 70], 835 (AMFFTRSEW) [compound 835] is lower in “Number of Spots” value: 35 for the first, 26 for the second.

Going from 1091 (LFPQYISYY) [compound 1091] to 1633 (ITRQTFMDI) [compound 1633], the “Number of Spots” value falls from 17 to 14.

1841 (SMFKHFDNM) [compound 1841] and 565 (SKVMDMICLDY) [compound 565] are the same in “Number of Spots” value: 17 for the first, 17 for the second.

First: 1693 (EVYAPYMHY) [compound 1693]
Second: 963 (TLINCTYLTL) [compound 963]
The “Number of Spots” value of the first is lower: 12 for the first, 19 for the second.

First: 1511 (RSLSNFQAL) [compound 1511]
Second: 2141 (RFFKKLLTHF) [compound 2141]
The “Number of Spots” value of the first is higher: 17 for the first, 12 for the second.

First: 908 (VGYNNVCYY) [compound 908]
Second: 1955 (SSAELYRKM) [compound 1955]
The “Number of Spots” value of the first is higher: 16 for the first, 14 for the second.

Compared with 1484 (GTSYLRMAY) [compound 1484], 1345 (RVRFSLIRV) [compound 1345] is higher in “Number of Spots” value: 14 for the first, 16 for the second.

Compared with 1379 (VVSASAINF) [compound 1379], 1991 (KQELSRLIY) [compound 1991] is higher in “Number of Spots” value: 13 for the first, 29 for the second.

Going from 335 (YLHETLFEL) [compound 335] to 1840 (SLANHTVKYY) [compound 1840], the “Number of Spots” value rises from 12 to 14.

Going from 1510 (FTDNAPAGHYY) [compound 1510] to 839 (ASSSMHSGM) [compound 839], the “Number of Spots” value rises from 15 to 16.

Compared with 1648 (RTLMDQPTY) [compound 1648], 1701 (YTGIQSPLF) [compound 1701] is lower in “Number of Spots” value: 14 for the first, 13 for the second.

Going from 836 (RSEWASSNTF) [compound 836] to 1019 (TQPLNPFPL) [compound 1019], the “Number of Spots” value falls from 31 to 21.

First: 1783 (GMQDGIRWFY) [compound 1783]
Second: 1573 (KVIRAHNFI) [compound 1573]
The “Number of Spots” value of the first is higher: 13 for the first, 12 for the second.

Going from 703 (STVITTAYNF) [compound 703] to 977 (LSSNYFYTF) [compound 977], the “Number of Spots” value rises from 13 to 18.

Going from 1287 (VHFNAHFKPY) [compound 1287] to 1127 (RALKMYEDYY) [compound 1127], the “Number of Spots” value falls from 14 to 12.

Compared with 1483 (KTIKHYEQL) [compound 1483], 1106 (CSSCMVRTY) [compound 1106] is higher in “Number of Spots” value: 12 for the first, 130 for the second.

Compared with 641 (GRSLNMLSLI) [compound 641], 1986 (KINQRSFSF) [compound 1986] is lower in “Number of Spots” value: 16 for the first, 13 for the second.

First: 2092 (KAKIAFPPEY) [compound 2092]
Second: 1488 (STQFMIQYF) [compound 1488]
The “Number of Spots” value of the first is higher: 17 for the first, 13 for the second.

Compared with 633 (ILEGVLGYF) [compound 633], 1875 (ISPRISYQF) [compound 1875] is lower in “Number of Spots” value: 14 for the first, 12 for the second.

Going from 1090 (ALFPQYISYY) [compound 1090] to 1499 (AVNLLRQTF) [compound 1499], the “Number of Spots” value falls from 106 to 14.

1348 (LMSALKWPIEY) [compound 1348] and 931 (SIDYWVSFNK) [compound 931] are the same in “Number of Spots” value: 12 for the first, 12 for the second.

Going from 1923 (RISSELISY) [compound 1923] to 1543 (NIYNYDYSF) [compound 1543], the “Number of Spots” value falls from 13 to 12.

439 (ISPEKFIKI) [compound 439] and 926 (KQKHVSLLY) [compound 926] are the same in “Number of Spots” value: 16 for the first, 16 for the second.

First: 1810 (KTIFNNVRY) [compound 1810]
Second: 2175 (RLYPHIFYR) [compound 2175]
The “Number of Spots” value of the first is lower: 13 for the first, 16 for the second.

280 (SLSTLLLKY) [compound 280] and 2242 (YNLTEAIQY) [compound 2242] are the same in “Number of Spots” value: 12 for the first, 12 for the second.

458 (IVSEYINYLF) [compound 458] and 1296 (HGQLQTFPR) [compound 1296] are the same in “Number of Spots” value: 16 for the first, 16 for the second.

Going from 278 (MRIEIFWEL) [compound 278] to 1649 (TLMDQPTY) [compound 1649], the “Number of Spots” value rises from 15 to 18.

Compared with 1491 (MIADAINQEF) [compound 1491], 784 (KSKQASISSI) [compound 784] is lower in “Number of Spots” value: 13 for the first, 12 for the second.

First: 2223 (SFSEMLTRY) [compound 2223]
Second: 647 (GADPTQKDY) [compound 647]
The “Number of Spots” value of the first is lower: 12 for the first, 14 for the second.

For 1400 (KESAETIYTF) [compound 1400], the “Number of Spots” value was 14.

For 1454 (INHLYKFLL) [compound 1454], the “Number of Spots” value was 12 and 18.
With 1767 (LLDTNTNFY) [compound 1767] the “Number of Spots” value was 13 and 21.
In the case of 860 (KARLCGLSY) [compound 860], the “Number of Spots” value is reported as 14 and 19.
In the case of 1461 (YTLLSPLQSY) [compound 1461], the “Number of Spots” value is reported as 13 and 17.
896 (SGLQSFYLY) [compound 896] was tested, and the “Number of Spots” value was 18 and 26.
In the case of 1437 (KANKAFYINH) [compound 1437], the “Number of Spots” value is reported as 12 and 16.
In the case of 872 (RVDMNRFFQF) [compound 872], the “Number of Spots” value is reported as 15 and 18.
